# Results published in paper PMC9951859, “Investigation of α,ω-Disubstituted Polyamine-Cholic Acid Conjugates Identifies Hyodeoxycholic and Chenodeoxycholic Scaffolds as Non-Toxic, Potent Antimicrobials” (Antibiotics, 2023).
# Where two headings read alike, the source gives them in different places.
# Tests used:
# [1] = tested on: Acinetobacter baumannii ATCC 19606; assay: Antimicrobial MIC assay (CO-ADD) against A. baumannii; type: cell-based; conditions: Acinetobacter baumannii, ATCC19606, read-out: MIC A.b.
# Excerpt: (§1) Antimicrobial evaluation against S. aureus (MRSA) (ATCC 43300), E. coli (ATCC 25922), K. pneumoniae (ATCC 700603), A. baumannii (ATCC 19606), C. albicans (ATCC 90028), and C. neoformans (ATCC 208821) was undertaken at the Community for Open Antimicrobial Drug Discovery at The University of Queensland (Australia) according to their standard protocols as reported previously.
# [2] = tested on: Staphylococcus aureus ATCC 43300 (MRSA); assay: Antimicrobial MIC assay (CO-ADD) against S. aureus MRSA; type: cell-based; conditions: Staphylococcus aureus, read-out: MIC S.a.
# Excerpt: as §1
# [3] = Cytotoxicity assay on HEK293; type: cell-based, human; conditions: human, HEK293 human embryonic kidney cells; concentration at 50% cytotoxicity on HEK293; mean (n = 2); top dose tested 32 μg/mL
# Description: Cytotoxicity assays were conducted using the protocols previously reported.
# human red blood cells = assay: Hemolytic assay; type: cell-based; conditions: concentration at 10% hemolytic activity on human red blood cells; mean (n = 2); top dose tested 32 μg/mL
# Description: Hemolytic assays were conducted using the protocols previously reported.
# [4] = tested on: Klebsiella pneumoniae ATCC 700603; assay: Antimicrobial MIC assay (CO-ADD) against K. pneumoniae; type: cell-based; conditions: Klebsiella pneumoniae, ATCC700603, read-out: MIC K.p.
# Excerpt: as §1
# [5] = tested on: Escherichia coli ATCC 25922; assay: Antimicrobial MIC assay (CO-ADD) against E. coli; type: cell-based; conditions: Escherichia coli, ATCC25922, read-out: MIC E.c.
# Excerpt: as §1
# [6] = tested on: Cryptococcus neoformans ATCC 208821; assay: Antimicrobial MIC assay (CO-ADD) against C. neoformans; type: cell-based
# Excerpt: as §1
# [7] = tested on: Pseudomonas aeruginosa ATCC 27853; assay: Antimicrobial MIC assay (CO-ADD) against P. aeruginosa; type: cell-based; conditions: Pseudomonas aeruginosa, ATCC27853, read-out: MIC P.a.
# [8] = tested on: Candida albicans ATCC 90028; assay: Antimicrobial MIC assay (CO-ADD) against C. albicans; type: cell-based; conditions: mean (n = 2)
# Excerpt: as §1
# [9] = Cryptococcus neoformans, ATCC208821, read-out: MIC C.n.
# [10] = Candida albicans, ATCC90028, read-out: MIC C.a., Candida albicans ATCC 90028
Structure (SMILES),MIC [1] [µM],MIC [2] [µM],IC50 [3] [µM],Hemolysis (HC10) (human red blood cells) [µM],MIC [4] [µM],MIC [5] [µM],"MIC [6, 9] [µM]",MIC [7] [µM],"MIC [8, 10] [µM]","MIC ([6]; ATCC208821, Cryptococcus neoformans ATCC 208821, mean (n = 2), read-out: MIC C.n.) [µM]","MIC ([8]; ATCC90028, Candida albicans ATCC 90028, read-out: MIC C.a.) [µM]"
"C[C@H](CCC(=O)NCCCNCCCCCCNCCCNC(=O)CC[C@@H](C)[C@H]1CC[C@H]2[C@@H]3C[C@H](O)[C@@H]4C[C@H](O)CC[C@]4(C)[C@H]3CC[C@]12C)[C@H]1CC[C@H]2[C@@H]3C[C@H](O)[C@@H]4C[C@H](O)CC[C@]4(C)[C@H]3CC[C@]12C.O=C(O)C(F)(F)F.O=C(O)C(F)(F)F [Compound 7b, N^1,N^6-Bis(3-((R)-4-((3R,5R,6S,8S,9S,10R,13R,14S,17R)-3,6-dihydroxy-10,13-dimethylhexadecahydro-1H-cyclopenta[a]phenanthren-17-yl)pentanamido)propyl)hexane-1,6-diaminium 2,2,2-trifluoroacetate]",> 26,≤ 0.21,> 26,>26,> 26,> 26,≤ 0.21,> 26,13,–,–
"C[C@H](CCC(=O)NCCCNCCCCCCCCCCCCNCCCNC(=O)CC[C@@H](C)[C@H]1CC[C@H]2[C@@H]3C[C@H](O)[C@@H]4C[C@H](O)CC[C@]4(C)[C@H]3CC[C@]12C)[C@H]1CC[C@H]2[C@@H]3C[C@H](O)[C@@H]4C[C@H](O)CC[C@]4(C)[C@H]3CC[C@]12C.O=C(O)C(F)(F)F.O=C(O)C(F)(F)F [Compound 7f, N^1,N^12-Bis(3-((R)-4-((3R,5R,6S,8S,9S,10R,13R,14S,17R)-3,6-dihydroxy-10,13-dimethylhexadecahydro-1H-cyclopenta[a]phenanthren-17-yl)pentanamido)propyl)dodecane-1,12-diaminium 2,2,2-trifluoroacetate]",> 25,≤ 0.19,25,>25,> 25,> 25,≤ 0.19,> 25,≤ 0.2,–,–
"C[C@H](CCC(=O)NCCCNCCCCNCCCNC(=O)CC[C@@H](C)[C@H]1CC[C@H]2[C@@H]3[C@@H](O)C[C@@H]4C[C@H](O)CC[C@]4(C)[C@H]3CC[C@]12C)[C@H]1CC[C@H]2[C@@H]3[C@@H](O)C[C@@H]4C[C@H](O)CC[C@]4(C)[C@H]3CC[C@]12C.O=C(O)C(F)(F)F.O=C(O)C(F)(F)F [Compound 8a, N^1,N^4-Bis(3-((R)-4-((3R,5S,7S,8R,9S,10S,13R,14S,17R)-3,7-dihydroxy-10,13-dimethylhexadecahydro-1H-cyclopenta[a]phenanthren-17-yl)pentanamido)propyl)butane-1,4-diaminium 2,2,2-trifluoroacetate]",> 27,27,> 27,7.3,> 27,> 27,> 27,> 27,27,–,–
"CC/C(=C(\c1ccccc1)c1ccc(OCCN(C)C)cc1)c1ccccc1 [Tamoxifen, reference compound]",–,–,24,–,–,–,–,–,–,–,–
"OC(Cn1cncn1)(Cn1cncn1)c1ccc(F)cc1F [fluconazole, reference compound]",–,–,–,–,–,–,–,–,–,26,0.4
"CN[C@H](CC(C)C)C(=O)N[C@H]1C(=O)N[C@@H](CC(N)=O)C(=O)N[C@H]2C(=O)N[C@H]3C(=O)N[C@H](C(=O)N[C@H](C(=O)O)c4cc(O)cc(O)c4-c4cc3ccc4O)[C@H](O)c3ccc(c(Cl)c3)Oc3cc2cc(c3O[C@@H]2O[C@H](CO)[C@@H](O)[C@H](O)[C@H]2O[C@H]2C[C@](C)(N)[C@H](O)[C@H](C)O2)Oc2ccc(cc2Cl)[C@H]1O [vancomycin, reference compound]",–,0.7,–,–,–,–,–,–,–,–,–
